Measurements: patent US20050221422A1, “Novel galactose transferases, peptides thereof and nucleic acid encoding the same” (priority 2002, published 2005)
Ends that are not written are not given here. T(GalNAc) = N-acetylgalactosamine-glycosylated threonine

Legend:
C1Gal-T3 = biological target: T1, C1Gal-T3 (Homo sapiens, UniProt P0DN25); assay: Galactose transferring activity of C1Gal-T3 recombinant enzyme on N-acetylgalactosaminyl peptides; format: biochemical; conditions: C1Gal-T3 recombinant enzyme expressed in COS-1 cells as enzyme source
T1 construct: a carboxyl terminal region (enzyme activity region) minus the transmembrane region at the amino terminus; preprotrypsin secretion signal (N); made in house; host or cells: COS-1 cells, transient transfection with pFLAG-C1Gal-T3; purified from culture supernatant on anti-FLAG M1 agarose
T1 sequence (P0DN25 30-315 limits assumed): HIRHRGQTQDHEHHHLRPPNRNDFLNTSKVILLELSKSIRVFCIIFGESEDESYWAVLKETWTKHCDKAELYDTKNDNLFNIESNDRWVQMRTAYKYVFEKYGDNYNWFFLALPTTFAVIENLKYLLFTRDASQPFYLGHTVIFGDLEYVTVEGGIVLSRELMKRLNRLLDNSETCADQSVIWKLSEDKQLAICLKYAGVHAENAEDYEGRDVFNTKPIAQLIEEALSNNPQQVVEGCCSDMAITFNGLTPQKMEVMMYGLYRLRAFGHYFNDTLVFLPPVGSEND
Protocol: The reaction solution (parentheses indicate final concentrations) comprised acceptor substrate (5 pmol), MES buffer (pH 6.5) (100 mM), MnCl2 (20 mM), ATP (2 mM), and UDP-Gal (0.5 mM). 5 μl of […] enzyme source was added to this reaction solution, which was then brought to a total volume of 20 μl by adding H2O.
The above reaction mixture was reacted at 37° C. for eight hours. After completion of the reaction, 60 μl of H2O was added, and the mixture was gently centrifuged to acquire the supernatant. This supernatant was purified through an Ultra Free MC Column (Millipore), and 30 μl of thus-purified solution was analyzed using high-performance liquid chromatography (HPLC). CAPCELL PAK C18 UG120 (Shiseido) was used as the column, 0.1% trifluoroacetic acid was used as the separation buffer, and the elution was carried out over an acetonitrile concentration gradient of 15-30%. The flow rate was 1 ml/minute.
Galactose transferring activity was measured using the C1Gal-T3 recombinant enzyme expressed in COS-1 cells as an enzyme source, and using the N-acetylgalactosaminyl peptides used in Example 5 as acceptor substrates.

C1Gal-T2 = assay: Screening for acceptor substrate of C1Gal-T2 (UDP-[14C]-Gal transfer, TLC, LSC-C1Gal-T2 cell extract); format: biochemical, human; conditions: LSC-C1Gal-T2 cell extract as enzyme source; acceptor substrate 10 nmol; 37° C. for two hours
Protocol: The reaction system below was used to investigate C2 acceptor substrates. To investigate whether pNp-α-GalNAc or pNp-β-GalNAc (both from Sigma) functioned as acceptors, each was used as an “acceptor substrate” in the following reaction solution:
The reaction solution (the parentheses show final concentrations) comprised acceptor substrate (10 nmol), HEPES buffer (pH 7.4) (14 mM), MnCl2 (12.5 mM), UDP-Gal (250 μM), and UDP-[^14C]-Gal (175 nCi). 5 μl of enzyme solution was added to this reaction solution, followed by the addition of H2O to a total volume of 20 μl. The enzyme solution was prepared by suspending cells (5×10^6 cells) in 50 ml of cell lysing buffer (HEPES buffer (pH 7.4) (20 mM), NaCl (154 mM) and TritonX-100 (1%)), incubating at 4° C. for 15 minutes in a water bath type ultrasonic homogenizer, centrifuging, and then obtaining the supernatant for the enzyme solution. The aforementioned reaction mixture was reacted at 37° C. for two hours. Following completion of the reaction, 200 μl of H2O was added to the mixture, which was gently centrifuged to obtain the supernatant. […] After drying the plate, the amount of radioactivity taken up by the product was measured using the Bio Image Analyzer FLA3000 (Fuji Photo Film).

Row | Molecule | galactose transferring activity (C1Gal-T3) | reaction as acceptor substrate (galactose transfer from UDP-Gal) (C1Gal-T2)
1 | VPST(GalNAc)PPTPSPSTPPTPSPS ({Val-Pro-Ser-T(GalNAc)}-PPTPSPSTPPTPSPS) [4-GalNAc-HP, human IgA1 hinge peptide with GalNAc on the 4th residue] | could be confirmed | 
2 | CC(=O)N[C@H]1[C@H](Oc2ccc([N+](=O)[O-])cc2)O[C@H](CO)[C@H](O)[C@@H]1O [pNp-β-GalNAc] |  | did not react
3 | CC(=O)N[C@H]1[C@@H](Oc2ccc([N+](=O)[O-])cc2)O[C@H](CO)[C@H](O)[C@@H]1O [pNp-α-GalNAc] |  | reacted strongly
